Legend:
[1] = general description of the commercial UV filter; cited from earlier work
[2] = Interfacial tension (polarity index) of emollients, Tensimat Densimat TD2000; assay type: physicochemical; conditions: interfacial tension oil/water
From the text: The term “polarity index” refers to non-polar or polar oils. Non-polar oils are mainly based on hydrocarbons and lack an electronegative element, such as oxygen. In contrast, polar oils contain heteroatoms that differ in electronegativity, which results in a dipole moment. However, such oils are still insoluble in water, i.e. hydrophob. The polarity index can be determined by measuring the interfacial tension between the respective oil and water.
Interfacial tension of the respective emollients as listed below was measured using a Tensimat Densimat TD2000.

SMILES | absorption maximum [1] [nm] | polarity index [2] [mN/m]
CCCCC(CC)COC(=O)c1ccc(Nc2nc(Nc3ccc(C(=O)NC(C)(C)C)cc3)nc(Nc3ccc(C(=O)OCC(CC)CCCC)cc3)n2)cc1 (centres unmarked) [diethylhexyl-butamidotriazone, 4,4′-[[6-[[4-[[(1,1-dimethylethyl)amino]carbonyl]phenyl]amino]-1,3,5-triazin-2,4-diyl]diimino]bis-benzoic acid-bis(2-ethylhexyl)ester] | 310 | 
O1[SiH2]O[SiH2]O[SiH2]O[SiH2]O[SiH2]1 (centres unmarked) [cyclopentasiloxane] |  | 32

From US20220151896A1, “EFFICIENT SUNSCREEN COMPOSITIONS WITH DIETHYLAMINO HYDROXYBENZOYL HEXYL BENZOATE AND ORGANIC PARTICULATE UV FILTER” (BASF SE, priority 2019, published 2022)
